Where a name gives a salt, the structure may show the parent alone. Read-outs that look alike come from different tables or passages of the source.
Columns and labels:
[1] = tested on: T47D cells; assay: Cell-based assay: anti-proliferative activity, Cell Counting Kit-8, 72 hours (T47D)
Outline: (§1)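 Anti-MELK western blot on crude lysates → MELK status per line. Cells plated 96-well, compound exposure, CCK-8 readout at 72 h; IC50 calculated.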

[2] = tested on: A549 cells; assay: Cell-based assay: anti-proliferative activity, Cell Counting Kit-8, 72 hours (A549); settings: 72 hours
Outline: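 A549 cells seeded in 96-well plates and exposed to candidate inhibitors for 72 hours. Growth measured with Cell Counting Kit-8; IC50 values calculated from the dose response.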

[3] = tested on: HT-1197 cells; assay: Cell-based assay: anti-proliferative activity, Cell Counting Kit-8, 72 hours (HT-1197, negative control without MELK expression); settings: 72 hours
Outline: as §1

[4] = tested on: 22Rv1 cells; assay: Cell-based assay: anti-proliferative activity, Cell Counting Kit-8, 72 hours (22Rv1); settings: Homo sapiens
[5] = tested on: DU4475 cells; assay: Cell-based assay: anti-proliferative activity, Cell Counting Kit-8, 72 hours (DU4475)
[6] = target: MELK (Homo sapiens, UniProt Q14680); assay: Kinase assay: MELK activity, phosphorylation of FITC-labeled histone H3 peptide measured by IMAP fluorescence polarization; assay type: biochemical; settings: read-out: IC50 (μM) (kinase assay)
MELK, sequence (Q14680 whole entry, looked up): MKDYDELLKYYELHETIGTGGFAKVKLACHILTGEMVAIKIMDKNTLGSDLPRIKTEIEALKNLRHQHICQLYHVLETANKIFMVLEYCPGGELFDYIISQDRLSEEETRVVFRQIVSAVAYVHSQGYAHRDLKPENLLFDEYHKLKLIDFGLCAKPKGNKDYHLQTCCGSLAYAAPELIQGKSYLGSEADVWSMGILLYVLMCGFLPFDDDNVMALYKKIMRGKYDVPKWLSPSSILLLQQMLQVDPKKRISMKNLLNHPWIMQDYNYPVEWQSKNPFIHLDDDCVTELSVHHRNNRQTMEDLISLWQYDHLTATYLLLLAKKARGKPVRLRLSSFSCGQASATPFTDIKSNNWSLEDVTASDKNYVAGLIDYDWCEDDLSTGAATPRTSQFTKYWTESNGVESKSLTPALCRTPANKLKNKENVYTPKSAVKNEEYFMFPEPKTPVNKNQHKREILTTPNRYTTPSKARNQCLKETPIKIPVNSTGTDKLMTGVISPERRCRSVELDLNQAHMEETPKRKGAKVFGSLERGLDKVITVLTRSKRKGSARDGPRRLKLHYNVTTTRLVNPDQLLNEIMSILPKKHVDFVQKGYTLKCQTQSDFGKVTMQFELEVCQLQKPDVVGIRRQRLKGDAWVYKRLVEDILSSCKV
Outline: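 Compounds, serially diluted from 12.5 mM DMSO stocks to 1% final DMSO, were tested with FITC-labeled histone H3 peptide as substrate. The reaction was stopped with progressive binding solution. Fluorescence polarization was read after 0.5 hour at room temperature.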

[7] = tested on: DU4475 cells; assay: Cell-based assay: anti-proliferative activity, Cell Counting Kit-8, 72 hours (DU4475); remark: listed apart in the source
[8] = tested on: 22Rv1 cells; assay: Cell-based assay: anti-proliferative activity, Cell Counting Kit-8, 72 hours (22Rv1); settings: Homo sapiens; remark: listed apart in the source
[9] = HT1197 cells (negative control), hydrochloride
[10] = Homo sapiens, HT1197, 72 h, HT1197 cells (negative control)
[11] = HT1197 cells (negative control, no MELK expression), hydrochloride
[12] = HT1197 cells (negative control, no MELK expression), dihydrochloride

`CN1CCN(C[C@H]2CC[C@H](Nc3c(C(=O)C4CC4)cnc4ccc(-c5cc(Cl)c(O)c(Cl)c5)cc34)CC2)CC1` [Example 619, cyclopropyl(6-(3,5-dichloro-4-hydroxyphenyl)-4-(1R,4R)-4-((4-methylpiperazin-1-yl)methyl)cyclohexylamino)quinolin-3-yl)methanone hydrochloride] was tested, and the IC50 ([1]; 72 hours, hydrochloride) was 0.32 µM, the IC50 ([2]; hydrochloride) was 0.28 µM and the IC50 [3, 9] was 2.6 µM. The IC50 [4] was 0.51 µM and the IC50 ([5]; hydrochloride) was 0.15 µM.

`CN[C@H]1CC[C@H](Nc2c(C(C)=O)cnc3ccc(-c4cc(Cl)c(O)c(OC)c4)cc23)CC1` [Example 543, 1-(6-(3-chloro-4-hydroxy-5-methoxyphenyl)-4-(1R,4R)-4-(methylamino)cyclohexylamino)quinolin-3-yl)ethanone dihydrochloride] showed an IC50 ([6]; dihydrochloride) of 0.0018 µM, an IC50 ([1]; 72 hours, dihydrochloride) of 0.047 µM and an IC50 ([2]; dihydrochloride) of 0.076 µM. The IC50 ([3]; HT1197 cells (negative control), dihydrochloride) was 1.1 µM, the IC50 [4] was 0.14 µM and the IC50 ([5]; dihydrochloride) was 0.051 µM.

`CN(C)CCc1ccc(Nc2c(C(=O)C3CC3)cnc3ccc(-c4cc(Cl)c(O)c(Cl)c4)cc23)cc1` [Example 614, cyclopropyl(6-(3,5-dichloro-4-hydroxyphenyl)-4-(4-(2-(dimethylamino)ethyl)phenylamino)quinolin-3-yl)methanone hydrochloride] was tested, and the IC50 ([6]; hydrochloride) was 0.0016 µM, the IC50 ([1]; 72 hours, hydrochloride) was 0.12 µM and the IC50 [3, 9] was 1.6 µM. For the same compound, the IC50 [4] was 0.12 µM and the IC50 ([5]; hydrochloride) was 0.024 µM.

`O=C(c1cnc2ccc(-c3cc(F)c(O)c(Cl)c3)cc2c1N[C@H]1CC[C@H](CN2CCCC2)CC1)C1CC1` [Example 588, (6-(3-chloro-5-fluoro-4-hydroxyphenyl)-4-(1R,4R)-4-(pyrrolidin-1-ylmethyl)cyclohexylamino)quinolin-3-yl)(cyclopropyl)methanone hydrochloride] gave an IC50 ([6]; hydrochloride) of 0.0037 µM, an IC50 ([1]; 72 hours, hydrochloride) of 0.091 µM and an IC50 ([2]; hydrochloride) of 0.096 µM. The IC50 [3, 9] was 0.46 µM, the IC50 [4] was 0.16 µM and the IC50 ([5]; hydrochloride) was 0.063 µM.

`CC(C)(N)c1ccc(Nc2c(C(=O)C3CC3)cnc3ccc(-c4cc(F)c(O)c(Cl)c4)cc23)cc1` [Example 604, {4-[4-(2-Aminopropan-2-yl)phenylamino]-6-(3-chloro-5-fluoro-4-hydroxyphenyl)quinolin-3-yl}(cyclopropyl)methanone] gave an IC50 [6] of 0.0028 µM, an IC50 ([1]; Homo sapiens, T47D, 72 h) of 0.094 µM and an IC50 ([2]; Homo sapiens, A549, 72 h) of 0.097 µM. For the same compound, the IC50 [3, 10] was 0.79 µM, the IC50 [4] was 0.087 µM and the IC50 ([5]; Homo sapiens, DU-4475, 72 h) was 0.039 µM.

For `N[C@H]1CCCN(c2ccc(Nc3c(C(=O)C4CC4)cnc4ccc(-c5cc(Cl)c(O)c(Cl)c5)cc34)cn2)C1` [Example 647, (S)-(4-(6-(3-aminopiperidin-1-yl)pyridin-3-ylamino)-6-(3,5-dichloro-4-hydroxyphenyl)quinolin-3-yl)(cyclopropyl)methanone hydrochloride], the IC50 ([6]; hydrochloride) was 0.0015 µM, the IC50 ([1]; 72 hours, hydrochloride) was 0.03 µM and the IC50 ([7]; hydrochloride) was 0.015 µM. It also gave an IC50 [8] of 0.03 µM, an IC50 ([2]; hydrochloride) of 0.08 µM and an IC50 [3, 11] of 0.75 µM.

With `CC(=O)c1cnc2ccc(-c3cc(F)c(O)c(Cl)c3)cc2c1Nc1ccc(N2CCCC(N)C2)nc1` (stereo not drawn) [Example 733, 1-(4-(6-(3-aminopiperidin-1-yl)pyridin-3-ylamino)-6-(3-chloro-5-fluoro-4-hydroxyphenyl)quinolin-3-yl)ethanone] the IC50 [6] was 0.00099 µM, the IC50 ([1]; 72 hours) was 0.0035 µM and the IC50 [7] was 0.01 µM. It also gave an IC50 [8] of 0.0064 µM, an IC50 [2] of 0.0086 µM and an IC50 ([3]; HT1197 cells (negative control, no MELK expression)) of 0.064 µM.

Compound `CN(C)C1CCN(Cc2ccc(Nc3c(C(=O)C4CC4)cnc4ccc(-c5cc(Cl)c(O)c(Cl)c5)cc34)cc2)C1` (stereo not drawn) [Example 695, cyclopropyl(6-(3,5-dichloro-4-hydroxyphenyl)-4-(4-((3-(dimethylamino)pyrrolidin-1-yl)methyl)phenylamino)quinolin-3-yl)methanone hydrochloride] has an IC50 ([1]; 72 hours, hydrochloride) of 0.26 µM, an IC50 ([7]; hydrochloride) of 0.1 µM and an IC50 [8] of 0.23 µM. For the same compound, the IC50 ([2]; hydrochloride) was 0.13 µM and the IC50 ([3]; Homo sapiens, HT1197, 72 h, HT1197 cells (negative control, no MELK expression)) was 5.8 µM.

`CC(C)(N)c1ccc(Nc2c(C(=O)C3CC3)cnc3ccc(-c4cc(Cl)c(O)c(Cl)c4)cc23)cc1` [Example 602, {4-[4-(2-Aminopropan-2-yl)phenylamino]-6-(3,5-dichloro-4-hydroxyphenyl)quinolin-3-yl}(cyclopropyl)methanone] gave an IC50 [6] of 0.0011 µM, an IC50 ([1]; 72 hours) of 0.13 µM and an IC50 [2] of 0.074 µM. For the same compound, the IC50 ([3]; HT1197 cells (negative control)) was 0.73 µM, the IC50 [4] was 0.082 µM and the IC50 [5] was 0.038 µM.

`CN[C@H]1CC[C@H](Nc2c(C(=O)C3CC3)cnc3ccc(-c4cc(Cl)c(O)c(OC)c4)cc23)CC1` [Example 517, {6-(3-Chloro-4-hydroxy-5-methoxyphenyl)-4-[trans-4-(methylamino)cyclohexylamino]quinolin-3-yl}(cyclopropyl)methanone] gave an IC50 [6] of 0.0014 µM, an IC50 ([1]; Homo sapiens, T47D, 72 h) of 0.067 µM and an IC50 ([2]; Homo sapiens, A549, 72 h) of 0.072 µM. The IC50 [3, 10] was 0.38 µM, the IC50 [4] was 0.18 µM and the IC50 ([5]; Homo sapiens, DU-4475, 72 h) was 0.048 µM.

`O=C(c1cnc2ccc(-c3cc(Cl)c(O)c(Cl)c3)cc2c1N[C@H]1CC[C@H](CN2CCCC2)CC1)C1CC1` [Example 585, cyclopropyl(6-(3,5-dichloro-4-hydroxyphenyl)-4-(1R,4R)-4-(pyrrolidin-1-ylmethyl)cyclohexylamino)quinolin-3-yl)methanone hydrochloride] gave an IC50 ([1]; 72 hours, hydrochloride) of 0.12 µM, an IC50 ([2]; hydrochloride) of 0.073 µM and an IC50 [3, 9] of 0.78 µM. It also gave an IC50 [4] of 0.1 µM and an IC50 ([5]; hydrochloride) of 0.043 µM.

With `CC(=O)c1cnc2ccc(-c3cc(F)c(O)c(Cl)c3)cc2c1N[C@H]1CC[C@H](CCN(C)C)CC1` [Example 742, 1-(6-(3-chloro-5-fluoro-4-hydroxyphenyl)-4-(1R,4R)-4-(2-(dimethylamino)ethyl)cyclohexylamino)quinolin-3-yl)ethanone dihydrochloride] the IC50 ([6]; dihydrochloride) was 0.0044 µM, the IC50 ([1]; 72 hours, dihydrochloride) was 0.034 µM and the IC50 ([7]; dihydrochloride) was 0.063 µM. The IC50 [8] was 0.094 µM, the IC50 ([2]; dihydrochloride) was 0.078 µM and the IC50 [3, 12] was 1.7 µM.

`CC(=O)c1cnc2ccc(-c3cc(Cl)c(O)c(Cl)c3)cc2c1Nc1ccc(CN2CCN(C)CC2)cc1` [Example 655, 1-(6-(3,5-dichloro-4-hydroxyphenyl)-4-(4-((4-methylpiperazin-1-yl)methyl)phenylamino)quinolin-3-yl)ethanone hydrochloride] was tested, and the IC50 ([6]; hydrochloride) was 0.0029 µM, the IC50 ([1]; 72 hours, hydrochloride) was 0.072 µM and the IC50 ([7]; hydrochloride) was 0.097 µM. It also gave an IC50 [8] of 0.18 µM, an IC50 ([2]; hydrochloride) of 0.23 µM and an IC50 [3, 11] of 7.8 µM.

Work on `CC(=O)c1cnc2ccc(-c3cc(Cl)c(O)c(Cl)c3)cc2c1N[C@H]1CC[C@H](CCN(C)C)CC1` [Example 740, 1-(6-(3,5-dichloro-4-hydroxyphenyl)-4-(trans-4-(2-(dimethylamino)ethyl)cyclohexylamino)quinolin-3-yl)ethanone hydrochloride] yielded an IC50 ([1]; 72 hours, hydrochloride) of 0.099 µM, an IC50 ([7]; hydrochloride) of 0.087 µM and an IC50 [8] of 0.17 µM. For the same compound, the IC50 [3, 11] was 3.5 µM.

`CCC(=O)c1cnc2ccc(-c3cc(Cl)c(O)c(Cl)c3)cc2c1N[C@H]1CC[C@H](CN(C)C)CC1` [Example 716, 1-(6-(3,5-dichloro-4-hydroxyphenyl)-4-((trans-4-((dimethylamino)methyl)cyclohexyl)amino)quinolin-3-yl)propan-1-one dihydrochloride] gave an IC50 ([6]; dihydrochloride) of 0.0016 µM, an IC50 ([1]; 72 hours, dihydrochloride) of 0.14 µM and an IC50 ([7]; dihydrochloride) of 0.055 µM. The IC50 [8] was 0.14 µM, the IC50 ([2]; dihydrochloride) was 0.12 µM and the IC50 [3, 12] was 0.82 µM.
